Patent US20170290806A1, “PCSK9 Inhibitors and Methods of Use Thereof” (Temple University-Of The Commonwealth System of Higher …, priority 2014, published 2017)
“Also recorded” adds a separate entry of the source.

Legend:
PCSK9/LDLR interaction [1] = target: T1, PCSK9/LDLR interaction (Homo sapiens, UniProt Q8NBP7); experiment: LDLR upregulation in HepG2 cells; assay type: cell-based; set-up: the human full-length PCSK9 was cloned; expressed in transfected cells; details: for up-regulation of endogenously expressed LDLR: compounds 1-50 uM; for EC50: endogenously expressed LDLR, transfected with PCSK9, compounds 1-50 uM, 43 hours, read-out: EC50 of up-regulation of LDLR
Procedure: (§1) HepG2 cells were seeded into 96 well plates in a MEM containing 10% Fetal Bovine Serum media and incubated overnight at 37° C. Cells were transiently transfected with PCSK9 cDNA constructs using the Lipofectamine-LTX. Compounds (1-50 uM) were added, followed by additional 43 hours of incubation. The cells were lysed and analyzed for LDLR expression and cell viability determined as described in FIG. 8.
(§2) Considering the difficulty in assaying the LDLR/PCSK9 binding, the approach was to develop and implement an innovative recombinant cell based assay where the full-length PCSK9 and the LDLR genes are expressed into HEK-293 cells, and allowed to decrease the LDLR level by PCSK9 (FIG. 7). Compounds that prevent the LDLR degradation without preventing the auto-processing and secretion of the PCSK9 were selected as potential candidates and were further evaluated using additional cell based assay using endogenously expressed LDLR in liver cells (HepG2 cells).
The compounds SBC-110,424, SBC-110, 433, and SBC-115,076 were also validated for their ability to up-regulate the endogenously expressed LDLR in HepG2 cells.

PCSK9/LDLR interaction [2] = target: T1, PCSK9/LDLR interaction; experiment: Recombinant cell based assay: LDLR upregulation in HEK293 cells transfected with LDLR and PCSK9; set-up: the human full-length PCSK9 was cloned; expressed in transfected cells; host or cells: HEK-293T; details: for increase in the LDLR (intracellular recombinant LDLR upregulation) as comparable to control / EC50: HEK293 cells transfected with LDLR and PCSK9; for increase in the LDLR (intracellular recombinant LDLR upregulation) as comparable to control: compounds 1-50 μM; for EC50: compounds 1-50 uM, 43 hours incubation, read-out: EC50 of LDLR up-regulation; for IC50s (increase in the LDLR): PCSK9/LDLR HEK293 recombinant cell based assay
Procedure: as §1, with “HEK-293T” for “HepG2”, “DMEM” for “MEM”, “with LDLR and” for “with”, “7.” for “8.”
as §1, with “HEK-293T” for “HepG2”, “DMEM” for “MEM”, “with LDLR and” for “with”, “8. […] Compound SBC-130,022 has no effect in up-regulating LDLR.” for “8.”
as §2
Preparation of constructs: the human full-length PCSK9 was cloned. The cDNA encoding the PCSK9 sequence with and without a FLAG epitope tag (DYKDDDDK) were cloned by PCR and subcloned into mammalian expression vector containing the cytomegalovirus promoter-enhancer (pCMV-PCSK9-FLAG) (pCDNA3.1/PCSK9). For LDLR, the coding sequence was constructed without tag in mammalian expression vector (pCMV-LDLR) (pCDNA3.1/LDLR). The constructs were confirmed by sequence analysis
The pCDNA3.1/PCSK9, and the pCDNA3.1/LDLR constructs were used to transiently transfect mammalian cells. The human embryonic kidney (HEK)-293 cells were seeded (1×10^5 cells/well) in 24-well plates. Expression plasmids ([…]) were transiently transfected into HEK-293 cells with lipofectamine (Invitrogen) according to the manufacturer's protocol. Twenty four to forty eight hours after transfection, cells were harvested. The cells were then be lysed. Both cell lysate and supernatant were subjected to SDS-PAGE and immunoblot analysis using an anti-PCSK9 or LDLR antibody.
240 compounds identified from the virtual screen in a cell based assay for their potential to upregulate the LDLR in the presence of PCSK9 were tested as described above. Initial screening was done using 50 μM of the compounds. Each compound was added to the cell media in triplicates, and intrecellar LDLR was detected as described above. Each set of compounds were screened at least twice with all appropriate controls. Compounds that upregulate the LDLR were selected for further evaluation.
From the initial screening, 24 compounds were identified as potential hits. Hits confirmation was repeated in triplicates using 50 μM.

T1 sequence (Q8NBP7 153-692): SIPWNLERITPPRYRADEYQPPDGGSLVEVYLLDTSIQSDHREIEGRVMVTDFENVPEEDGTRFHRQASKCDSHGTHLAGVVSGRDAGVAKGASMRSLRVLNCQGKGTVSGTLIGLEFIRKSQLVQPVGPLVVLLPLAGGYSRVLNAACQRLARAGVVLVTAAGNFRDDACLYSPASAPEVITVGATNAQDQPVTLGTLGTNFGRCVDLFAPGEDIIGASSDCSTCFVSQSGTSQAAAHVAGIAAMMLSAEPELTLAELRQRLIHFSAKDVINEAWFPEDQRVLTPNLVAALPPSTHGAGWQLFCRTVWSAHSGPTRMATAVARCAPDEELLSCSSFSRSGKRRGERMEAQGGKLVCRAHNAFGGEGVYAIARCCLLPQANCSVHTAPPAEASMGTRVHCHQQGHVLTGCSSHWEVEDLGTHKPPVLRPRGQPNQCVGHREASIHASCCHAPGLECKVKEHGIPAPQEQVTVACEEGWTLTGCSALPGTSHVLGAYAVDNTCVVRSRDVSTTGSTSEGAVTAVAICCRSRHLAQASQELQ
T1 sequence (Q8NBP7 31-152 partner limits assumed): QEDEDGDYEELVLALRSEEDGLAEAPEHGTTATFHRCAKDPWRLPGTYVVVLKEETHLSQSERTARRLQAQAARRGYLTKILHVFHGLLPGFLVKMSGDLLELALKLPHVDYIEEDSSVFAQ

Row | up-regulation of endogenously expressed LDLR (PCSK9/LDLR interaction [1]) | EC50 (PCSK9/LDLR interaction [1]) | EC50 (PCSK9/LDLR interaction [2]) | IC50s (increase in the LDLR) (PCSK9/LDLR interaction [2]) | SMILES | increase in the LDLR (intracellular recombinant LDLR upregulation) as comparable to control (PCSK9/LDLR interaction [2])
1 | concentration dependent up-regulation | 2000 nM | 3500 nM | low uM range | CC(C)(C(=O)NCc1ccco1)n1cc(NC(=O)c2cccnc2)cn1 [SBC-110,424] | concentration dependent increase; also recorded: significant potency
2 | concentration dependent up-regulation | 430 nM | 3100 nM | low uM range | Cc1cc(C(=O)C2=C(O)C(=O)N(CCCN3CCOCC3)C2c2ccncc2)ccc1OCc1ccccc1 (stereo not shown) [SBC-115,076] | concentration dependent increase
